A word on the IC50: it is the midpoint of a concentration-inhibition curve. Read a low IC50 as higher potency.

Where a chain is given by its changes, count along the chain named.

One assay has as its target T1, Type-2 angiotensin II receptor (Homo sapiens, UniProt P50052).
T1 sequence (P50052 whole entry): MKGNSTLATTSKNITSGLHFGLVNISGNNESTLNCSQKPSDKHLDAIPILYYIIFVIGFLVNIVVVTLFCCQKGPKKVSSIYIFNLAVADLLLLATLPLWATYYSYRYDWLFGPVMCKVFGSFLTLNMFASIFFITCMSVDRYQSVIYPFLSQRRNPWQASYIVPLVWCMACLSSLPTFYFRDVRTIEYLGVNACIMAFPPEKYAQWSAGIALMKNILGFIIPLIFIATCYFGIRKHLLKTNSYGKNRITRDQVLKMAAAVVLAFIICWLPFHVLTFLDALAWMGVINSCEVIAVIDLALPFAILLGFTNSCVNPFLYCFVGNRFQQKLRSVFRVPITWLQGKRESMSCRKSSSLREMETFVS
In words: […] inhibitory concentration against AT2 receptor of human adrenal membrane.
Turning to `CCc1nc2ccc(NC(=O)N(C)C(C)C)cc2c(=O)n1Cc1ccc(-c2ccccc2S(=O)(=O)NC(=O)OCCC(C)C)cc1F`, 9.2 nM corresponded to half-maximal inhibition (IC50).

As for `CCc1ccc(C(=O)NS(=O)(=O)c2ccccc2-c2ccc(Cn3c(CC)nc4ccc(NC(=O)N(C)C(C)C)cc4c3=O)c(F)c2)cc1`, half-maximal inhibition (IC50) was put at 8.9 nM.

Take `CCCc1nc2ccc(NC(=O)NC(C)C)cc2c(=O)n1Cc1ccc(-c2ccccc2S(=O)(=O)NC(=O)COCC(C)C)cc1F`: the IC50 stood at 3.5 nM.

The next assay has as its target T2, Type-1 angiotensin II receptor (Homo sapiens, UniProt P30556).
T2 sequence (P30556 whole entry): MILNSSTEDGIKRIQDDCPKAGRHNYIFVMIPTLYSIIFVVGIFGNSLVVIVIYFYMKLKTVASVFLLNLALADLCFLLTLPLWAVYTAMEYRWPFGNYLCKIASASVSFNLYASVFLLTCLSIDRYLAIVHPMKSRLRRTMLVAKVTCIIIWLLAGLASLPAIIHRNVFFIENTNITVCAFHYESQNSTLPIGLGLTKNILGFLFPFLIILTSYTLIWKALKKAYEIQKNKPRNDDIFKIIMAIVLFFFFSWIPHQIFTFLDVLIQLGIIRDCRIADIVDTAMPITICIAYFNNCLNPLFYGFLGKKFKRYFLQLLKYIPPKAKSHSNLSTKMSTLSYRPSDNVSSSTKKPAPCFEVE
The experiment in a line: […] inhibitory concentration against Angiotensin II receptor, type 1 of human adrenal membrane.
Turning to `CCc1nc2ccc(NC(=O)N(C)C(C)C)cc2c(=O)n1Cc1ccc(-c2ccccc2S(=O)(=O)NC(=O)OCCC(C)C)cc1F`, the IC50 turned out to be 10 nM.

Take `CCc1ccc(C(=O)NS(=O)(=O)c2ccccc2-c2ccc(Cn3c(CC)nc4ccc(NC(=O)N(C)C(C)C)cc4c3=O)c(F)c2)cc1`: the half-inhibitory concentration (IC50) turned out to be 5.8 nM.

`CCCc1nc2ccc(NC(=O)NC(C)C)cc2c(=O)n1Cc1ccc(-c2ccccc2S(=O)(=O)NC(=O)COCC(C)C)cc1F` had an IC50 of 1.5 nM.

A further assay concerns the target Angiotensin II receptor (Rattus norvegicus) (UniProt P29089+P25095+P35351). The experiment in a line: Ratio of inhibitory concentration against AT2 receptor and AT1 receptor of rat adrenal membrane.
For `CCc1nc2ccc(NC(=O)N(C)C(C)C)cc2c(=O)n1Cc1ccc(-c2ccccc2S(=O)(=O)NC(=O)OCCC(C)C)cc1F`, the Ratio turned out to be 1.1.

Turning to `CCc1ccc(C(=O)NS(=O)(=O)c2ccccc2-c2ccc(Cn3c(CC)nc4ccc(NC(=O)N(C)C(C)C)cc4c3=O)c(F)c2)cc1`, the Ratio was 2.5.

On to `CCCc1nc2ccc(NC(=O)NC(C)C)cc2c(=O)n1Cc1ccc(-c2ccccc2S(=O)(=O)NC(=O)COCC(C)C)cc1F`, for which the Ratio came out at 2.1.

For the next assay, the target named is T3, Type-2 angiotensin II receptor (Rattus norvegicus, UniProt P35351).
T3 sequence (P35351 whole entry): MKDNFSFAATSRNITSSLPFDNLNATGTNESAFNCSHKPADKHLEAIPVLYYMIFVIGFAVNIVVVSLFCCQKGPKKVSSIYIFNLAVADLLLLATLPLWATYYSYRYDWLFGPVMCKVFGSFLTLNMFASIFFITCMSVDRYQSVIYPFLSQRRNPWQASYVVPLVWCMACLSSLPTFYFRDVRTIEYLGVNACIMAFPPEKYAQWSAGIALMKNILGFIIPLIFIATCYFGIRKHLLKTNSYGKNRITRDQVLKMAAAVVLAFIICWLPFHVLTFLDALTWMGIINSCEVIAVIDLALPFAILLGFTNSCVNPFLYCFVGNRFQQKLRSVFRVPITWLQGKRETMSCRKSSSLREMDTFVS
The experiment in a line: […] inhibitory concentration against Angiotensin II, type 2 of rat midbrain membrane.
Compound `CCc1nc2ccc(NC(=O)N(C)C(C)C)cc2c(=O)n1Cc1ccc(-c2ccccc2S(=O)(=O)NC(=O)OCCC(C)C)cc1F` showed a half-inhibitory concentration (IC50) of 0.2 nM.

Regarding `CCc1ccc(C(=O)NS(=O)(=O)c2ccccc2-c2ccc(Cn3c(CC)nc4ccc(NC(=O)N(C)C(C)C)cc4c3=O)c(F)c2)cc1`, half-maximal inhibition (IC50) required 0.25 nM.

Compound `CCCc1nc2ccc(NC(=O)NC(C)C)cc2c(=O)n1Cc1ccc(-c2ccccc2S(=O)(=O)NC(=O)COCC(C)C)cc1F` came in with an IC50 of 1 nM.

A further assay has as its target T4, Angiotensin II receptor (AT-1) type-1 (Rattus norvegicus, UniProt P29089+P25095).
T4 sequence (P29089 whole entry): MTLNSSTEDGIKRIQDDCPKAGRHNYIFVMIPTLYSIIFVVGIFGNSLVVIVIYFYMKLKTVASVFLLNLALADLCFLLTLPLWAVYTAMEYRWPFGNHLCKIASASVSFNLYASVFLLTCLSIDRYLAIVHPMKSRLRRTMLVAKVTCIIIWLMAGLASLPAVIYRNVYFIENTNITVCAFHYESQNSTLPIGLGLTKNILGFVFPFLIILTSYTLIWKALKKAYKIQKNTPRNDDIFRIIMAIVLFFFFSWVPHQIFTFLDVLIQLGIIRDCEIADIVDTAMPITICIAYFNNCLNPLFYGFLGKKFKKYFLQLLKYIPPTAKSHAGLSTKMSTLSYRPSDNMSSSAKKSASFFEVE
T4 sequence (P25095 whole entry): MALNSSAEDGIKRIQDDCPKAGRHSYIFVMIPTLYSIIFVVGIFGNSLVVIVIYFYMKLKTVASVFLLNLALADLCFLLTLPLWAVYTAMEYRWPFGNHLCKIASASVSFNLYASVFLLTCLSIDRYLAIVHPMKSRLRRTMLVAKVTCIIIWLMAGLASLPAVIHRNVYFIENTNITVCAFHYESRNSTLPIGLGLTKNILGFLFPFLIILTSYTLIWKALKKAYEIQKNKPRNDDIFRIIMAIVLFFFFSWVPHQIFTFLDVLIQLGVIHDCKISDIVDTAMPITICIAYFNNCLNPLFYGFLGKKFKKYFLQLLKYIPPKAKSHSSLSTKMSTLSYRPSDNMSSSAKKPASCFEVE
In words: […] inhibitory concentration against Angiotensin II receptor, type 1 of rat adrenal membrane.
Take `CCc1nc2ccc(NC(=O)N(C)C(C)C)cc2c(=O)n1Cc1ccc(-c2ccccc2S(=O)(=O)NC(=O)OCCC(C)C)cc1F`: the IC50 was found to be 0.3 nM.

`CCc1ccc(C(=O)NS(=O)(=O)c2ccccc2-c2ccc(Cn3c(CC)nc4ccc(NC(=O)N(C)C(C)C)cc4c3=O)c(F)c2)cc1` came in with a concentration for half-maximal inhibition (IC50) of 0.14 nM.

Turning to `CCCc1nc2ccc(NC(=O)NC(C)C)cc2c(=O)n1Cc1ccc(-c2ccccc2S(=O)(=O)NC(=O)COCC(C)C)cc1F`, the IC50 is 0.17 nM.

A further assay has as its target T3, Type-2 angiotensin II receptor. In words: […] inhibitory concentration against AT2 receptor of rat adrenal membrane.
`CCc1nc2ccc(NC(=O)N(C)C(C)C)cc2c(=O)n1Cc1ccc(-c2ccccc2S(=O)(=O)NC(=O)OCCC(C)C)cc1F` came in with a concentration for half-maximal inhibition (IC50) of 0.3 nM.

As to `CCc1ccc(C(=O)NS(=O)(=O)c2ccccc2-c2ccc(Cn3c(CC)nc4ccc(NC(=O)N(C)C(C)C)cc4c3=O)c(F)c2)cc1`, the midpoint of inhibition, the IC50, lay at 0.93 nM.

In turn, `CCCc1nc2ccc(NC(=O)NC(C)C)cc2c(=O)n1Cc1ccc(-c2ccccc2S(=O)(=O)NC(=O)COCC(C)C)cc1F` came in with an IC50 of 0.38 nM.

For a further assay, the species on record is Oryctolagus cuniculus. In words: Ratio of inhibitory concentration against AT2 receptor of rat midbrain to AT1 receptor of rabbit aorta.
Turning to `CCc1nc2ccc(NC(=O)N(C)C(C)C)cc2c(=O)n1Cc1ccc(-c2ccccc2S(=O)(=O)NC(=O)OCCC(C)C)cc1F`, the Ratio amounted to 0.33.

Consider `CCc1ccc(C(=O)NS(=O)(=O)c2ccccc2-c2ccc(Cn3c(CC)nc4ccc(NC(=O)N(C)C(C)C)cc4c3=O)c(F)c2)cc1`, for which the Ratio worked out at 1.6.

In the case of `CCCc1nc2ccc(NC(=O)NC(C)C)cc2c(=O)n1Cc1ccc(-c2ccccc2S(=O)(=O)NC(=O)COCC(C)C)cc1F`, the Ratio amounted to 1.7.

A further assay concerns the target Angiotensin II receptor (Homo sapiens) (UniProt P30556+P50052). The experiment in a line: Ratio of inhibitory concentration against AT2 receptor and AT1 receptor of human adrenal membrane.
Turning to `CCc1nc2ccc(NC(=O)N(C)C(C)C)cc2c(=O)n1Cc1ccc(-c2ccccc2S(=O)(=O)NC(=O)OCCC(C)C)cc1F`, the Ratio was determined as 0.9.

For `CCc1ccc(C(=O)NS(=O)(=O)c2ccccc2-c2ccc(Cn3c(CC)nc4ccc(NC(=O)N(C)C(C)C)cc4c3=O)c(F)c2)cc1`, the Ratio turned out to be 1.6.

`CCCc1nc2ccc(NC(=O)NC(C)C)cc2c(=O)n1Cc1ccc(-c2ccccc2S(=O)(=O)NC(=O)COCC(C)C)cc1F`: the Ratio was determined as 2.3.

The target in the next assay is T5, Type-1 angiotensin II receptor (Oryctolagus cuniculus, UniProt P34976).
T5 sequence (P34976 whole entry): T2 sequence (P30556 whole entry) with I2M, V49A, I254V, I270V, R272H, R311K, T349S, A353V
The experiment in a line: […] inhibitory concentration against Angiotensin II receptor, type 1 of rabbit aorta membrane.
In turn, `CCc1nc2ccc(NC(=O)N(C)C(C)C)cc2c(=O)n1Cc1ccc(-c2ccccc2S(=O)(=O)NC(=O)OCCC(C)C)cc1F` came in with an IC50 of 0.62 nM.

As for `CCc1ccc(C(=O)NS(=O)(=O)c2ccccc2-c2ccc(Cn3c(CC)nc4ccc(NC(=O)N(C)C(C)C)cc4c3=O)c(F)c2)cc1`, inhibition was half-maximal at 0.54 nM (IC50).

As for `CCCc1nc2ccc(NC(=O)NC(C)C)cc2c(=O)n1Cc1ccc(-c2ccccc2S(=O)(=O)NC(=O)COCC(C)C)cc1F`, the concentration for half-maximal inhibition (IC50) amounted to 0.52 nM.

Values taken from ChEMBL document CHEMBL1150477, “Development of angiotensin II antagonists with equipotent affinity for human AT1 and AT2 receptor subtypes” (Bioorg Med Chem Lett, 1994).
